Reference: patent US20220351803A1, “Predicting The Response Of A Microbiota To Dietary Fibers” (MYOTA GMBH, priority 2019, published 2022)

Tests used:
CaCo cell monolayers = assay: Gut monolayer SCFA absorption measurements (Transwell, apical/basal sampling over 24 h); assay type: in vitro ADME; details: CaCo monolayer-derived rate constant
Experimental: Applicants used a gut monolayer system without the immune component, the Gut monolayer was prepared as previously described by WLK Chen et al. (Chen et al., 2017b) Briefly Caco-2 or C2BBe1 along with HT29-MTX-E21 cells (Sigma) were seeded onto rat tail collagen I-(corning 354236) coated Transwell inserts (Corning 3460) in a 9:1 ratio (1×10^5 cells/cm2) in 500 μl seeding medium. The top and bottom compartments of the Transwell Plate were fed with 500 ul and 1.5 ml of seeding medium. The medium was changed every 2-3 days. After 20 days of gut insert maturation, the cell monolayer was ready to use.
Barrier integrity was quantified by TEER (TransEpithelial Electrical Resistance) using the EVOM2 and the Enfohm-12 (World Precision Instruments) at 37° C. Applicants measured cell monolayer integrity at the beginning and the end of the 24 h long experiment. […]
Gut luminal concentrations of microbially-derived SCFAs is a balance between net production in the lumen and absorption by the host epithelium. Unfortunately, quantitative understanding of the rate of absorption of a given SCFA by cells in the gut epithelia is limited. […] Applicants sought to estimate the order of magnitude of this rate constant, to better understand the fate of SCFAs produced by the microbiota in the colon (i.e. the balance between quantities absorbed versus quantities excreted). […]

[1] = dialysis bag constant; cited from earlier work
stool microbiota [2] = assay: Ex vivo stool slurry incubation, SCFA production by GC-FID; parameters: species or system human
Experimental: (§1) Fresh stool samples were collected and weighed before being transferred to anaerobic conditions, in which they were diluted in reduced PBS containing 0.1% L-Cysteine to a ratio of 1 g/5 ml. Samples were homogenized into a slurry before being aliquoted into 96-well plates. Samples of the unaltered slurry were taken for a baseline sample, after which inulin, pectin, and cellulose were added from stock solutions to final slurry concentrations of 10 g/L, 5 g/L and 20 g/L, respectively. Concentrations of inulin and pectin were determined based on the maximum stock concentration we were able to obtain in which the dietary fiber was fully dissolved. Four conditions were measured: inulin, pectin, cellulose and control (no spike-in). The samples were incubated anaerobically at 37° C., and two biological replicates (two different wells in the 96-well plates) were collected at each time point. Samples were collected after 2 and 4 hours from all participants and sent out for SCFA quantification on a GC-FID. Linear production rate was measured between 2 h and 4 h because this allowed Applicants maximum accuracy in measuring the time interval without introducing artefacts due to delays between conditions introduced during setup. Results obtained from slurry in large flasks on a shaker were in good agreement with data obtained in a 96-well plate format.
Chromatographic analysis was carried out using an Agilent 7890B system with a flame ionization detector (FID) (Agilent Technologies, Santa Clara, Calif.). A high resolution gas chromatography capillary column 30 m×0.25 mm coated with 0.25 μm film thickness was used (DB-FFAP) for the volatile acids (Agilent Technologies) and a high resolution gas chromatography capillary column 30 m×0.25 mm coated with 0.50 μm film thickness was used (DB-FFAP) for the nonvolatile acids. Nitrogen was used as the carrier gas. […]
The samples were kept frozen at −80° C. until analysis. […] A sample of the raw fecal material was transferred to a 2 mL tube, the weight of the fecal material was determined and 1.5 mL of HPLC water was added to each sample. […]

stool microbiota [3] = assay: Ex vivo stool slurry incubation, inulin depletion by inulin-specific ELISA; parameters: species or system human
Experimental: as §1
Applicants use BioPAL's inulin immunoassay kit (BioPAL Worcester Mass.) to measure inulin concentration in filtrate from stool samples and follow manufacture's protocol. […]
To measure SCFA production ex vivo in response to different dietary polysaccharides, stool from 40 healthy human participants was homogenized into a slurry in anaerobic conditions and spiked with inulin, pectin or cellulose (cf. Methods). The slurry was then allowed to evolve over time and samples obtained at regular intervals in order to quantify SCFA content at each timepoint (FIG. 1). In order to determine the appropriate sampling frequency, Applicants performed pilot experiments in which Applicants analysed the trajectory of each SCFA concentration over a 24 h period. […]

CCCC(=O)[O-].[Na+] [butyrate, Sodium Butyrate]
absorption rate constant of butyrate (CaCo cell monolayers): 0.091 mmol L-1h-1cm-2
absorption rate constant of butyrate [1]: 0.0019 mmol L-1h-1cm-2

cellulose
SCFA production rates versus control (no spike-in) (stool microbiota [2]; 20 g/L cellulose, timepoints 2 h and 4 h): indistinguishable from control

inulin
inulin substrate in slurry after 4 h (stool microbiota [3]; 10 g/L inulin, 4 h): a significant fraction of inulin substrate remained
inulin substrate in slurry by 24 h (stool microbiota [3]; 10 g/L inulin, 24 h, five of the six participants tested): almost entirely consumed
time for the majority of inulin to be fermented by the microbiota ex vivo (stool microbiota [3]; input concentration 10 g/L, most participants): 12 to 24 h
butyrate concentration over 24 h (stool microbiota [2]; participant C): only produces butyrate from inulin

pectin
butyrate concentration over 24 h (stool microbiota [2]; participant G): produces it from pectin as well
